{
  "source": "patent US6204026A",
  "about": "“Detection of M. tuberculosis complex via reverse transcriptase SDA” (priority 1997, dated 2001)",
  "test_system": "M. tuberculosis",
  "format": "cell-based, Mycobacterium tuberculosis",
  "data": [
    {"smiles": "NNC(=O)c1ccncc1", "note": "[INH, Isoniazid]", "values": [
      {"measurement": "time of exposure within which changes in α-antigen mRNA were detected", "result": "≤ 24", "unit": "h"}
    ]},
    {"smiles": "CO[C@H]1/C=C/O[C@@]2(C)Oc3c(C)c(O)c4c(O)c(c(/C=N/N5CCN(C)CC5)c(O)c4c3C2=O)NC(=O)/C(C)=C\\C=C\\[C@H](C)[C@H](O)[C@@H](C)[C@@H](O)[C@@H](C)[C@H](OC(C)=O)[C@@H]1C", "note": "[RIF, rifampin]", "values": [
      {"measurement": "decline in detectable α-antigen mRNA, compared with INH-treated cultures", "result": "more rapid"},
      {"measurement": "time of exposure within which changes in α-antigen mRNA were detected", "result": "≤ 24", "unit": "h"}
    ]}
  ]
}
